According to ChEMBL document CHEMBL5236615, “Discovery of Novel N-Heterocyclic-Fused Deoxypodophyllotoxin Analogues as Tubulin Polymerization Inhibitors Targeting the Colchicine-Binding Site for Cancer Treatment” (J Med Chem, 2022):
Calls of active or inactive are those of the source. The calls are words filed in the database; no cut-off is given here.

What was measured:
[1] = target: T1, Tubulin (Homo sapiens) (UniProt P68371+Q9H4B7+P0DPH7+P68366+Q13509+Q71U36+P04350+Q3ZCM7+P07437+P68363+Q9BQE3+Q6PEY2+Q13885+Q9BVA1+Q9BUF5); experiment: Disruption of microtubule network in human MCF7 cells assessed as broken microtubule filaments at 20 nM measured after 6 hrs by immunofluorescence assay; type: cell-based
[2] = Tmax in Sprague-Dawley rat at 10 mg/kg, iv measured upto 8 hrs by LC/MS/MS analysis; type: ADME, organism-based; settings: in vivo
[3] = Cardiotoxicity in Sprague-Dawley rat assessed as QTcf value at 10 to 60 mg/kg, iv measured upto 60 mins by electrocardiography; type: toxicity, organism-based; settings: in vivo, 1 h, dose 10-60 mg/kg
[4] = system: A549/TxR; experiment: Induction of apoptosis in paclitaxel-resistant human A549/TxR cells incubated for 24 hrs by annexinV/PI assay; type: functional, cell-based; settings: dose 5-20 nM
[5] = system: MCF7; experiment: Antitumor activity against human MCF7 cells xenografted in Balb/c mouse assessed as tumor growth inhibition at 10 mg/kg, ip administered for every 2 days for 21 days; type: functional; settings: MCF7, 504 h, time 21 day, read-out: TGI
[6] = Half life in Sprague-Dawley rat at 10 mg/kg, iv measured upto 8 hrs by LC/MS/MS analysis; type: ADME, organism-based; settings: in vivo
[7] = system: MCF7; experiment: Induction of cell cycle arrest in human MCF7 cells assessed as arrest in G2/M phase by measuring accumulation of CDK7 at 5 to 25 nM incubated for 24 hrs by Western blotting analysis; type: functional, cell-based; settings: dose 5-25 nM
[8] = system: MCF7; experiment: Antiproliferative activity against human MCF7 cells assessed as survival rate at 20 nM measured after 72 hrs by MTT assay relative to control; type: functional
[9] = Cardiotoxicity in Sprague-Dawley rat assessed as RR interval at 10 to 60 mg/kg, iv measured upto 60 mins by electrocardiography; type: toxicity, organism-based; settings: in vivo, 1 h, dose 10-60 mg/kg
[10] = Toxicity in Balb/c mouse assessed as pathological changes in blood aspartate aminotransferase level at 20 mg/kg, ip administered for every 2 days for 14 days; type: organism-based; settings: in vivo, 336 h, time 14 day
[11] = system: HCT-116; experiment: Antiproliferative activity against human HCT-116 cells measured after 72 hrs by MTT assay; type: functional, cell-based; settings: HCT-116, 72 h
[12] = target: T1, Tubulin (Homo sapiens); experiment: Inhibition of [3H]colchicine binding to tubulin (unknown origin) at 1 uM by competition scintillation proximity assay relative to control; type: protein-complex assay
[13] = system: MCF7; experiment: Induction of apoptosis in human MCF7 cells assessed as upregulation of p-Bim EL protein expression at 5 to 20 nM measured after 24 hrs by Western blot analysis; type: functional, cell-based; settings: dose 5-20 nM
[14] = Cardiotoxicity in Sprague-Dawley rat assessed as PR interval at 10 to 60 mg/kg, iv measured upto 60 mins by electrocardiography; type: toxicity, organism-based; settings: in vivo, 1 h, dose 10-60 mg/kg
[15] = Antitumor activity against paclitaxel-resistant human MCF7/TxR cells xenografted in Balb/c mouse assessed as tumor growth inhibition at 5 mg/kg, ip administered for every 2 days for 21 days; type: functional; settings: read-out: TGI
[16] = MRT (0 to t) in Sprague-Dawley rat at 10 mg/kg, iv measured upto 8 hrs by LC/MS/MS analysis; type: ADME, organism-based; settings: in vivo
[17] = Acute toxicity in ICR mouse; settings: in vivo
[18] = system: MCF7; experiment: Induction of apoptosis in human MCF7 cells assessed as upregulation of p-Bim EL protein expression at 5 to 20 nM in presence of roscovitine measured after 24 hrs by Western blot analysis; type: functional, cell-based; settings: dose 5-20 nM
[19] = Antitumor activity against paclitaxel-resistant human MCF7/TxR cells xenografted in Balb/c mouse assessed as tumor growth inhibition at 20 mg/kg, ip administered for every 2 days for 21 days; type: functional; settings: 504 h, time 21 day, read-out: TGI
[20] = Cardiotoxicity in Sprague-Dawley rat assessed as heart rate at 10 to 60 mg/kg, iv measured upto 60 mins by electrocardiography; type: toxicity, organism-based; settings: in vivo, 1 h, dose 10-60 mg/kg
[21] = Volume of distribution at steady sate in Sprague-Dawley rat at 10 mg/kg, iv measured upto 8 hrs by LC/MS/MS analysis; type: ADME, organism-based; settings: in vivo, read-out: Vdss
[22] = system: MCF7; experiment: Antiproliferative activity against human MCF7 cells assessed as survival rate at 20 nM in presence of roscovitine measured after 72 hrs by MTT assay relative to control; type: functional
[23] = target: Tubulin beta (Homo sapiens) (UniProt P68371+Q9H4B7+Q13509+P04350+Q3ZCM7+P07437+Q13885+Q9BVA1+Q9BUF5+A6NNZ2); experiment: Binding affinity to beta-tubulin colchicine binding site in human MCF-7 cells assessed as inhibition of EBI-beta-tubulin adduct band formation preincubated for 2 hrs followed by EBI addition and measured after 1.5 hrs by EBI competition based Western blotting analysis; type: cell-based; settings: MCF7, dose 0.2-25 µM, time 3.5 hrs
[24] = system: MCF7; experiment: Induction of apoptosis in human MCF7 cells assessed as upregulation of p-Bim L protein expression at 5 to 20 nM in presence of roscovitine measured after 24 hrs by Western blot analysis; type: functional, cell-based; settings: dose 5-20 nM
[25] = system: MCF7; experiment: Induction of cell cycle arrest in human MCF7 cells assessed as acetyl-alpha tubulin at 20 nM in presence of roscovitine measured after 24 hrs by Western blot analysis; type: functional, cell-based
[26] = Cmax in Sprague-Dawley rat at 10 mg/kg, iv measured upto 8 hrs by LC/MS/MS analysis; type: ADME, organism-based; set-up: dose 10 mg/kg, time < 8 hrs, route iv; settings: in vivo
[27] = system: A549/TxR; experiment: Inhibition of colony formation of paclitaxel-resistant human A549/TxR cells at 20 nM measured after 24 hrs by crystal violet based assay; type: functional, cell-based
[28] = system: MCF7; experiment: Induction of cell cycle arrest in human MCF7 cells assessed as accumulation of cells at G2/M phase at 5 nM measured after 24 hrs by flow cytometry relative to control; type: functional
[29] = Cardiotoxicity in Sprague-Dawley rat assessed as QT correction value at 10 to 60 mg/kg, iv measured upto 60 mins by electrocardiography; type: toxicity, organism-based; settings: in vivo, 1 h, dose 10-60 mg/kg
[30] = system: MCF7; experiment: Induction of apoptosis in human MCF7 cells assessed as upregulation of cleaved Caspase 9 at 5 to 20 nM measured after 24 hrs by Western blot analysis; type: functional, cell-based; settings: dose 5-20 nM
[31] = system: A549; experiment: Antimigratory activity against human A549 cells assessed as inhibition of cell migration measured after 24 hrs by crystal violet staining based transwell migration assay; type: functional; settings: dose 1.25-5 nM
[32] = Toxicity in Balb/c mouse assessed as pathological changes in blood creatinine level at 20 mg/kg, ip administered for every 2 days for 14 days; type: organism-based; settings: in vivo, 336 h, time 14 day
[33] = system: MCF7; experiment: Induction of apoptosis in human MCF7 cells incubated for 24 hrs by annexinV/PI assay; type: functional, cell-based; settings: dose 5-25 nM
[34] = system: MCF7; experiment: Induction of cell cycle arrest in human MCF7 cells assessed as upregulation of Bcl2 phosphorylation at […] at 5 to 20 nM in presence of roscovitine measured after 24 hrs by Western blot analysis; type: functional, cell-based; settings: dose 5-20 nM
[35] = Toxicity in Balb/c mouse assessed as pathological changes in blood urea nitrogen level at 20 mg/kg, ip administered for every 2 days for 14 days; type: organism-based; settings: in vivo, 336 h, time 14 day
[36] = Cardiotoxicity in Sprague-Dawley rat assessed as Qt interval at 10 to 60 mg/kg, iv measured upto 60 mins by electrocardiography; type: toxicity, organism-based; settings: in vivo, 1 h, dose 10-60 mg/kg

Compound: COc1c(Cl)cc([C@@H]2c3cc4c(cc3C[C@H]3C(=O)NC(=O)N23)OCCO4)cc1Cl
- Activity [1]: Active
- Tmax [2]: 6.6 min
- Activity [3]: Non-Toxic
- inhibition [4]: Dose-Dependent Effect
- inhibition in vivo at 10 mg/kg [5]: 85.1%
- t1/2 [6]: 1.59 h
- Activity [7]: Active
- Activity [8]: 31.55%
- Activity [9]: Non-Toxic
- Activity [10]: Non-Toxic
- IC50 [11]: 8.7 nM
- inhibition [12]: 71.5%
- Activity [13]: Active
- Activity [14]: Non-Toxic
- inhibition in vivo at 5 mg/kg [15]: 38.9%
- MRT last at 8 h [16]: 1.79 h
- LD50 [17]: 211 mg/kg
- Activity [18]: inactive
- inhibition in vivo at 20 mg/kg [19]: 67.7%
- Activity [20]: Non-Toxic
- Vd [21]: 6.99 L/kg
- Activity [22]: 60.71%
- Activity [23]: Dose-Dependent Effect
- Activity [24]: inactive
- Activity [25]: Active
- Cmax [26]: 7291 ng/mL
- inhibition [27]: Active
- Activity [28]: 16%
- Activity [29]: Non-Toxic
- Activity [30]: Active
- Activity [31]: Dose-Dependent Effect
- Activity [32]: Non-Toxic
- Activity [33]: Dose-Dependent Effect
- Activity [34]: inactive
- Activity [35]: Non-Toxic
- Activity [36]: Non-Toxic

Compound: COc1c(Br)cc([C@@H]2c3cc4c(cc3C[C@H]3C(=O)NC(=O)N23)OCCO4)cc1Br
- inhibition [4]: Dose-Dependent Effect
- inhibition in vivo at 10 mg/kg [5]: 73.2%
- Activity [7]: Active
- IC50 [11]: 5.9 nM
- inhibition [12]: 69.7%
- Activity [13]: Active
- LD50 [17]: 86.2 mg/kg
- inhibition [27]: Active
- Activity [28]: 16%
- Activity [30]: Active
- Activity [31]: Dose-Dependent Effect
- Activity [33]: Dose-Dependent Effect
